Measurements reported in patent publication US12692223B2, “Phenyl-sulfamoyl-benzoic acid derivatives as ERAP1-modulators” (GREY WOLF THERAPEUTICS LIMITED, priority 2021, dated 2026).

The compounds below were run against T1, ERAP1 (Homo sapiens, UniProt Q9NZ08) (assay: ERAP1 mediated hydrolysis of an amide substrate measured in a biochemical system (10-mer inhibition assay)). Settings: purified ERAP1(37-941)-10His; 10-mer substrate; 23° C. for 1 h; excitation 279 nm, emission 355 nm; read-out: IC50 vs Decapeptide WRVYEKC(Dnp)ALK-acid (where Dnp is Dinitrophenyl maleimide) (10-mer).
T1 construct: Purified ERAP1(37-941)-10His (ERAP1)
Procedure: Biological Assay 1: ERAP1 Mediated Hydrolysis of an Amide Substrate Measured in a Biochemical System
• 1× Assay buffer (AB): 25 mM Bis-tris propane, 0.05% w/v • Hydroxypropylmethylcellulose pH 7.75 made with Optima grade water • Decapeptide WRVYEKC(Dnp)ALK-acid (where Dnp is Dinitrophenyl maleimide) (10-mer) • L-Leucine 7-amido-4-methylcoumarin (L-AMC) • Purified ERAP1(37-941)-10His (ERAP1) Assay Procedure:
12.5 μL ERAP1 enzyme in 1×AB was combined with 250 nL test compound in DMSO. 12.5 μL of either 240 μM L-AMC in 1×AB or 100 μM 10-mer in 1×AB was added to the reaction and incubated at 23° C. for 1 h. For detection, plates were read at excitation 365 nm and emission 442 nm (L-AMC) or excitation 279 nm and emission 355 nm (10-mer). Compound IC50 was determined using a 4-parameter equation.

T1 sequence (Q9NZ08 37-941): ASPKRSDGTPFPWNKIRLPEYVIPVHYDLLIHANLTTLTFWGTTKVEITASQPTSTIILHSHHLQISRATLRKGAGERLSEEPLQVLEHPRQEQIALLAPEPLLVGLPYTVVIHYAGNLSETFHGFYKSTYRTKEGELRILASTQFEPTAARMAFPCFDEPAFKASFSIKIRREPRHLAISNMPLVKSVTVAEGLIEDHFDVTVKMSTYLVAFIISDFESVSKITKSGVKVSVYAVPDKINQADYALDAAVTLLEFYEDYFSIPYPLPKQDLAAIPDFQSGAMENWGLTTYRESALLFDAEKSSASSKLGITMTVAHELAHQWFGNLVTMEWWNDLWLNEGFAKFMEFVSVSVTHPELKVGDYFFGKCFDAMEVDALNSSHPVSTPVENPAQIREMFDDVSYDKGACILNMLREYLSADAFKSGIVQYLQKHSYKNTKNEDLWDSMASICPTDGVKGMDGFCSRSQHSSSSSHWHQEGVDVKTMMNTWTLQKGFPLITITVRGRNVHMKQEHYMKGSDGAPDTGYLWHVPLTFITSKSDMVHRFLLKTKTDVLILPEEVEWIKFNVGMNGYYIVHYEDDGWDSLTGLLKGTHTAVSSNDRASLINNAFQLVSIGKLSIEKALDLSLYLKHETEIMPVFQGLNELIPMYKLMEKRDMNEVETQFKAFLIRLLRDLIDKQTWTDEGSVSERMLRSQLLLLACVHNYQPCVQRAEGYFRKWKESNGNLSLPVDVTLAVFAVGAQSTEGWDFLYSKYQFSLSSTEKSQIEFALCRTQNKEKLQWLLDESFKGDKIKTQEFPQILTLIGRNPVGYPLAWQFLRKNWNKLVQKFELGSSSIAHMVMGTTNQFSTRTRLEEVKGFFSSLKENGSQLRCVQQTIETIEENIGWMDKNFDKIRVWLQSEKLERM

`CC1CC(Oc2cc(Cl)c(C#N)cc2NS(=O)(=O)c2cc(C(=O)O)ccc2C2CC2)C1` (mixture of isomers) [Example 88, 3-(N-(4-chloro-5-cyano-2-(3-methylcyclobutoxy)phenyl)sulfamoyl)-4-cyclopropylbenzoic acid] and `CC1CC(COc2cc(Cl)c(C#N)cc2NS(=O)(=O)c2cc(C(=O)O)ccc2C2CC2)C1` (mixture of isomers) [Example 89, 3-(N-(4-chloro-5-cyano-2-((3-methylcyclobutyl)methoxy)phenyl)sulfamoyl)-4-cyclopropylbenzoic acid] cannot be ordered by IC50: < 1 nM for the first, < 1 nM for the second.

`N#Cc1cc(NS(=O)(=O)c2cc(C(=O)O)ccc2C2CC2)c(OC2CCC2C2CC2)cc1Cl` (mixture of isomers) [Example 108, 3-(N-(4-chloro-5-cyano-2-(2-cyclopropylcyclobutoxy)-phenyl)sulfamoyl)-4-cyclopropylbenzoic acid] and `N#Cc1cc(NS(=O)(=O)c2cc(C(=O)O)ccc2C2CC2)c(OC2CCC2O)cc1Cl` (racemic) [Example 113, 3-(N-(4-chloro-5-cyano-2-(cis-2-hydroxycyclobutoxy)phenyl)sulfamoyl)-4-cyclopropylbenzoic acid] cannot be ordered by IC50: < 1 nM for the first, < 1 nM for the second.

`COC1CCC(Oc2cc(Cl)c(C#N)cc2NS(=O)(=O)c2cc(C(=O)O)ccc2C2CC2)C1` (mixture of isomers) [Example 124, 3-(N-(4-chloro-5-cyano-2-((3-methoxycyclopentyl)oxy)phenyl)sulfa-moyl)-4-cyclopropylbenzoic acid] and `N#Cc1cc(NS(=O)(=O)c2cc(C(=O)O)ccc2C2CC2)c(OC2CCC(O)C2)cc1Cl` (racemic) [Example 110, 3-(N-(4-chloro-5-cyano-2-((cis-3-hydroxycyclopentyl)oxy)phenyl)sulfa-moyl)-4-cyclopropylbenzoic acid] cannot be ordered by IC50: < 1 nM for the first, < 1 nM for the second.

`N#Cc1cc(NS(=O)(=O)c2cc(C(=O)O)ccc2C2CC2)c(OC2CCCC2O)cc1Cl` (racemic) [Example 59, 3-(N-(4-chloro-5-cyano-2-((trans-2-hydroxycyclopentyl)oxy)phenyl)sulfamoyl)-4-cyclopropylbenzoic acid] and `N#Cc1cc(NS(=O)(=O)c2cc(C(=O)O)ccc2C2CC2)c(OC2CCC2O)cc1Cl` (racemic) [Example 118, 3-(N-(4-chloro-5-cyano-2-(trans-2-hydroxycyclobutoxy)phenyl)sulfamoyl)-4-cyclopropylbenzoic acid] cannot be ordered by IC50: < 1 nM for the first, < 1 nM for the second.

Compared with `N#Cc1cc(NS(=O)(=O)c2cc(C(=O)O)ccc2C2CC2)c(OC2CCC(C#N)C2)cc1Cl` (racemic) [Example 72, 3-(N-(4-chloro-5-cyano-2-((trans-3-cyanocyclopentyl)oxy)phenyl)sulfamoyl)-4-cyclopropylbenzoic acid], `N#Cc1cc(NS(=O)(=O)c2cc(C(=O)O)ccc2C2CC2)c(OC2CCC(O)C2)cc1Cl` (racemic) [Example 111, 3-(N-(4-chloro-5-cyano-2-((trans-3-hydroxycyclopentyl)oxy)phenyl)sulfa-moyl)-4-cyclopropylbenzoic acid] is higher in IC50: < 1 nM for the first, 1 to 5 nM for the second. The first is the more potent here.

`N#Cc1cc(NS(=O)(=O)c2cc(C(=O)O)ccc2C2CC2)c(OC2CCC(C#N)C2)cc1Cl` (racemic) [Example 74, 3-(N-(4-chloro-5-cyano-2-((cis-3-cyanocyclopentyl)oxy)phenyl)sulfamoyl)-4-cyclopropylbenzoic acid] and `N#Cc1cc(NS(=O)(=O)c2cc(C(=O)O)ccc2C2CC2)c(OC2CCCC2F)cc1Cl` (racemic) [Example 86, 3-(N-(4-chloro-5-cyano-2-((trans-2-fluorocyclopentyl)oxy)phenyl)sulfamoyl)-4-cyclopropylbenzoic acid] cannot be ordered by IC50: < 1 nM for the first, < 1 nM for the second.

`C#CC1CCCC1Oc1cc(Cl)c(C#N)cc1NS(=O)(=O)c1cc(C(=O)O)ccc1C1CC1` (racemic) [Example 84, 3-(N-(4-chloro-5-cyano-2-((trans-2-ethynylcyclopentyl)oxy)phenyl)sulfamoyl)-4-cyclopropylbenzoic acid] and `CC1CCCC1Oc1cc(Cl)c(C#N)cc1NS(=O)(=O)c1cc(C(=O)O)ccc1C1CC1` (racemic) [Example 90, 3-(N-(4-chloro-5-cyano-2-((trans-2-methylcyclopentyl)oxy)phenyl)sulfamoyl)-4-cyclopropylbenzoic acid] cannot be ordered by IC50: < 1 nM for the first, < 1 nM for the second.

`COC1CCCC1Oc1cc(Cl)c(C#N)cc1NS(=O)(=O)c1cc(C(=O)O)ccc1C1CC1` (racemic) [Example 85, 3-(N-(4-chloro-5-cyano-2-((trans-2-methoxycyclopentyl)oxy)phenyl)sulfamoyl)-4-cyclopropylbenzoic acid] and `COC1CCC1Oc1cc(Cl)c(C#N)cc1NS(=O)(=O)c1cc(C(=O)O)ccc1C1CC1` (racemic) [Example 119, 3-(N-(4-chloro-5-cyano-2-(trans-2-methoxycyclobutoxy)phenyl)sulfamoyl)-4-cyclopropylbenzoic acid] cannot be ordered by IC50: < 1 nM for the first, < 1 nM for the second.

`N#Cc1cc(NS(=O)(=O)c2cc(C(=O)O)ccc2C2CC2)c(OC2CCCC2O)cc1Cl` (racemic) [Example 98, 3-(N-(4-chloro-5-cyano-2-((cis-2-hydroxycyclopentyl)oxy)phenyl)sulfamoyl)-4-cyclopropylbenzoic acid] and `CC1CCCC1Oc1cc(Cl)c(C#N)cc1NS(=O)(=O)c1cc(C(=O)O)ccc1C1CC1` (racemic) [Example 105, 3-(N-(4-chloro-5-cyano-2-((cis-2-methylcyclopentyl)oxy)-phenyl)sulfamoyl)-4-cyclopropylbenzoic acid] cannot be ordered by IC50: < 1 nM for the first, < 1 nM for the second.

`COC1CCCC1Oc1cc(Cl)c(C#N)cc1NS(=O)(=O)c1cc(C(=O)O)ccc1C1CC1` (racemic) [Example 102, 3-(N-(4-chloro-5-cyano-2-((cis-2-methoxycyclopentyl)oxy)phenyl)sulfa-moyl)-4-cyclopropylbenzoic acid] and `COC1CCC1Oc1cc(Cl)c(C#N)cc1NS(=O)(=O)c1cc(C(=O)O)ccc1C1CC1` (racemic) [Example 137, 3-(N-(4-chloro-5-cyano-2-(cis-2-methoxycyclobutoxy)phenyl)sulfamoyl)-4-cyclopropylbenzoic acid] cannot be ordered by IC50: < 1 nM for the first, < 1 nM for the second.

First: N#Cc1cc(NS(=O)(=O)c2cc(C(=O)O)ccc2C2CC2)c(OC2CCC23CCC3)cc1Cl (single isomer, unassigned) [Example 91, 3-(N-(4-chloro-5-cyano-2-(spiro[3.3]heptan-1-yloxy)phenyl)sulfamoyl)-4-cyclopropylbenzoic acid]
Second: N#Cc1cc(NS(=O)(=O)c2cc(C(=O)O)ccc2C2CC2)c(OC2CCC23CC3)cc1Cl (single isomer, unassigned) [Example 106, 3-(N-(4-chloro-5-cyano-2-(spiro[2.3]hexan-4-yloxy)phenyl)-sulfamoyl)-4-cyclopropylbenzoic acid]
The IC50 of the first is higher: 1 to 5 nM for the first, < 1 nM for the second. The second is the more potent here.

`N#Cc1cc(NS(=O)(=O)c2cc(C(=O)O)ccc2C2CC2)c(OC2CCC23CCC3)cc1Cl` (single isomer, unassigned) [Example 92, 3-(N-(4-chloro-5-cyano-2-(spiro[3.3]heptan-1-yloxy)phenyl)sulfamoyl)-4-cyclopropylbenzoic acid] and `N#Cc1cc(NS(=O)(=O)c2cc(C(=O)O)ccc2C2CC2)c(OC2CCC23CC3)cc1Cl` (single isomer, unassigned) [Example 107, 3-(N-(4-chloro-5-cyano-2-(spiro[2.3]hexan-4-yloxy)phenyl)-sulfamoyl)-4-cyclopropylbenzoic acid] cannot be ordered by IC50: < 1 nM for the first, < 1 nM for the second.

First: CC1(C)CCC1Oc1cc(Cl)c(C#N)cc1NS(=O)(=O)c1cc(C(=O)O)ccc1C1CC1 (single isomer, unassigned) [Example 93, 3-(N-(4-chloro-5-cyano-2-(2,2-dimethylcyclobutoxy)phenyl)-sulfamoyl)-4-cyclopropylbenzoic acid]
Second: CC1CCCC1Oc1cc(Cl)c(C#N)cc1NS(=O)(=O)c1cc(C(=O)O)ccc1C1CC1 (single isomer, unassigned) [Example 99, 3-(N-(4-chloro-5-cyano-2-((trans-2-methylcyclopentyl)oxy)-phenyl)sulfamoyl)-4-cyclopropylbenzoic acid]
The IC50 of the first is higher: 1 to 5 nM for the first, < 1 nM for the second.

`CC1(C)CCC1Oc1cc(Cl)c(C#N)cc1NS(=O)(=O)c1cc(C(=O)O)ccc1C1CC1` (single isomer, unassigned) [Example 94, 3-(N-(4-chloro-5-cyano-2-(2,2-dimethylcyclobutoxy)phenyl)-sulfamoyl)-4-cyclopropylbenzoic acid] and `CC1CCCC1Oc1cc(Cl)c(C#N)cc1NS(=O)(=O)c1cc(C(=O)O)ccc1C1CC1` (single isomer, unassigned) [Example 100, 3-(N-(4-chloro-5-cyano-2-((trans-2-methylcyclopentyl)oxy)-phenyl)sulfamoyl)-4-cyclopropylbenzoic acid] cannot be ordered by IC50: < 1 nM for the first, < 1 nM for the second.

`COC1CCCC1Oc1cc(Cl)c(C#N)cc1NS(=O)(=O)c1cc(C(=O)O)ccc1C1CC1` (single isomer, unassigned) [Example 103, 3-(N-(4-chloro-5-cyano-2-((trans-2-methoxycyclopentyl)-oxy)phenyl)sulfamoyl)-4-cyclopropylbenzoic acid] was tested, and the IC50 was < 1 nM.
For `COC1CCCC1Oc1cc(Cl)c(C#N)cc1NS(=O)(=O)c1cc(C(=O)O)ccc1C1CC1` (single isomer, unassigned) [Example 104, 3-(N-(4-chloro-5-cyano-2-((trans-2-methoxycyclopentyl)-oxy)phenyl)sulfamoyl)-4-cyclopropylbenzoic acid], the IC50 was > 5 nM.
